Experimental data taken from the kinase profiling compilation of Christmann-Franck et al. (2016).

Experiments:
Test in all cases: KINOMEscan competition binding
Settings in all cases: compound 1.0 µM
RIOK1 (human) = RIOK1 (human) (UniProt Q9BRS2)
TLK2 (human) = TLK2 (human) (UniProt Q86UE8)
TTK (human) = TTK (human) (UniProt P33981)
CSNK1G2 (human) = CSNK1G2 (human) (UniProt P78368)
NUAK2 (human) = NUAK2 (human) (UniProt Q9H093)
CDC2L2 (human) = CDC2L2 (human) (UniProt Q9UQ88)
PLK3 (human) = PLK3 (human) (UniProt Q9H4B4)
RET (human) = RET (human) (UniProt P07949)
MYO3A (human) = MYO3A (human) (UniProt Q8NEV4)
CAMK4 (human) = CAMK4 (human) (UniProt Q16566)
[1] = tested on: FLT3 (human), P36888 [K663Q]
ERBB4 (human) = ERBB4 (human) (UniProt Q15303)
SRPK1 (human) = SRPK1 (human) (UniProt Q96SB4)
CSNK1D (human) = CSNK1D (human) (UniProt P48730)
CSNK1A1 (human) = CSNK1A1 (human) (UniProt P48729)
TGFBR1 (human) = TGFBR1 (human) (UniProt P36897)
MINK1 (human) = MINK1 (human) (UniProt Q8N4C8)
MAP4K5 (human) = MAP4K5 (human) (UniProt Q9Y4K4)
PAK6 (human) = PAK6 (human) (UniProt Q9NQU5)
EPHA3 (human) = EPHA3 (human) (UniProt P29320)
CDK15 (human) = CDK15 (human) (UniProt Q96Q40)
AURKC (human) = AURKC (human) (UniProt Q9UQB9)
RPS6KA1 KD2 (human) = RPS6KA1 KD2 (human) (UniProt Q15418)
NEK3 (human) = NEK3 (human) (UniProt P51956)
[2] = tested on: MET (human), P08581 [Y1235D]
STK10 (human) = STK10 (human) (UniProt O94804)
HCK (human) = HCK (human) (UniProt P08631)
[3] = tested on: EGFR (human), P00533 [746-750 del]
CDKL5 (human) = CDKL5 (human) (UniProt O76039)
ADCK4 (human) = ADCK4 (human) (UniProt Q96D53)
[4] = tested on: PIK3CA (human), P42336 [H1047L]
PIK3CB (human) = PIK3CB (human) (UniProt P42338)
CDK18 (human) = CDK18 (human) (UniProt Q07002)
MAPK12 (human) = MAPK12 (human) (UniProt P53778)
[5] = tested on: KIT (human), P10721 [V559D]
ACVR1B (human) = ACVR1B (human) (UniProt P36896)
DCLK2 (human) = DCLK2 (human) (UniProt Q8N568)
[6] = tested on: RET (human), P07949 [V804L]
BMPR2 (human) = BMPR2 (human) (UniProt Q13873)

MYO3A (human), sequence (Q8NEV4 whole entry, looked up): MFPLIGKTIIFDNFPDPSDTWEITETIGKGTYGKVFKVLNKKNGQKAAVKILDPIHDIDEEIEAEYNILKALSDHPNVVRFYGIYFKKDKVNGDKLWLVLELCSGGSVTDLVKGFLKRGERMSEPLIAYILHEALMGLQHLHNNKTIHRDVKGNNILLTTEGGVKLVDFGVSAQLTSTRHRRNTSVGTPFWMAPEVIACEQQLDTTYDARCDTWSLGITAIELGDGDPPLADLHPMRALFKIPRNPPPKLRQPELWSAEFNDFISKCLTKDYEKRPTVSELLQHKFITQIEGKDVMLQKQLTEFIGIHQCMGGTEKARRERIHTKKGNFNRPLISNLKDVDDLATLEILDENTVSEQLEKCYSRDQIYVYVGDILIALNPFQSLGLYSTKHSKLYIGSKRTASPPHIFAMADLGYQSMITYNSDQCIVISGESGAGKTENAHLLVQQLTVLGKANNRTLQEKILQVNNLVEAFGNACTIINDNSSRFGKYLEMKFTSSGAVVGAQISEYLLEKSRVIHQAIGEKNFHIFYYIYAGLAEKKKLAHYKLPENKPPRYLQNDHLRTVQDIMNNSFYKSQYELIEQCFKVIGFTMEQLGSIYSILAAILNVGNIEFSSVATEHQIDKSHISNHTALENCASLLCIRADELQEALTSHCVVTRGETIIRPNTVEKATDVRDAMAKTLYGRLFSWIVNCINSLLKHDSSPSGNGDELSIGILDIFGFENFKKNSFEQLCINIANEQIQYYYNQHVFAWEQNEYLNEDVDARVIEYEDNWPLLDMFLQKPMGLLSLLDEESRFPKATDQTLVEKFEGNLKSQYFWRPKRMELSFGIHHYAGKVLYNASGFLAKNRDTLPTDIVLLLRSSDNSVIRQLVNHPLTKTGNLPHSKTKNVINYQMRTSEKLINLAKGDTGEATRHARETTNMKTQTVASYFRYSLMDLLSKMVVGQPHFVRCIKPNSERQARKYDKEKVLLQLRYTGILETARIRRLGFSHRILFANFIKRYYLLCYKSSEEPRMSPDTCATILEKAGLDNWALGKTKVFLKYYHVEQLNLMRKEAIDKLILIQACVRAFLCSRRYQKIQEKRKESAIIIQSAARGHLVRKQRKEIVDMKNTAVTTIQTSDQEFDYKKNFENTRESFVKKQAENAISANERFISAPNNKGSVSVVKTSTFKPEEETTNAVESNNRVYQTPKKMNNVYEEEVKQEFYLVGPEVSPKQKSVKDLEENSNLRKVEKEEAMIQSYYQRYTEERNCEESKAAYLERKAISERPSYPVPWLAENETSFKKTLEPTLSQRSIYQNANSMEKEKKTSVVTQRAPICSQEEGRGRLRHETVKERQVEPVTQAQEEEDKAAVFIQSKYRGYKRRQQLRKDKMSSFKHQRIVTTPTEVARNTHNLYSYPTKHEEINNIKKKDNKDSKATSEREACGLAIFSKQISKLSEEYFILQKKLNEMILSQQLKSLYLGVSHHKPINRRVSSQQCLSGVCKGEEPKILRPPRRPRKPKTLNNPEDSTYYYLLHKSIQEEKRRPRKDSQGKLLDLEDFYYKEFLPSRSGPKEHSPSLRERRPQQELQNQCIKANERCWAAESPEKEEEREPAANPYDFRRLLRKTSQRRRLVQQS
SRPK1 (human), sequence (Q96SB4 whole entry, looked up): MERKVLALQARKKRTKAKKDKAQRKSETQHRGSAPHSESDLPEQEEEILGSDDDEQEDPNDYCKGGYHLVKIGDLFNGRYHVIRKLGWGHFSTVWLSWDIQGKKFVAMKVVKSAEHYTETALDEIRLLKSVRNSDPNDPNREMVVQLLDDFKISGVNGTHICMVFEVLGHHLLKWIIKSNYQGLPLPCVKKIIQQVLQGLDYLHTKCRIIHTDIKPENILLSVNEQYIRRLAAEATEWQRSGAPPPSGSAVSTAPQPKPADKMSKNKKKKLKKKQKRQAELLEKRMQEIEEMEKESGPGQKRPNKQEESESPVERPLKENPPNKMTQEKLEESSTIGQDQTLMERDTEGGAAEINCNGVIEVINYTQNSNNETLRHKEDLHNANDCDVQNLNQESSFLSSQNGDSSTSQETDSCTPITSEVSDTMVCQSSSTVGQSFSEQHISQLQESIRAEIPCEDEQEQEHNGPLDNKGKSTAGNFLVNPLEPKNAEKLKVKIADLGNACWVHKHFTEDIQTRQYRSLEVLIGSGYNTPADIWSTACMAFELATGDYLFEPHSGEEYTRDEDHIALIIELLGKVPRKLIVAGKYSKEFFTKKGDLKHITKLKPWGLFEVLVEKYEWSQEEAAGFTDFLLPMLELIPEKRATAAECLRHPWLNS
AURKC (human), sequence (Q9UQB9 whole entry, looked up): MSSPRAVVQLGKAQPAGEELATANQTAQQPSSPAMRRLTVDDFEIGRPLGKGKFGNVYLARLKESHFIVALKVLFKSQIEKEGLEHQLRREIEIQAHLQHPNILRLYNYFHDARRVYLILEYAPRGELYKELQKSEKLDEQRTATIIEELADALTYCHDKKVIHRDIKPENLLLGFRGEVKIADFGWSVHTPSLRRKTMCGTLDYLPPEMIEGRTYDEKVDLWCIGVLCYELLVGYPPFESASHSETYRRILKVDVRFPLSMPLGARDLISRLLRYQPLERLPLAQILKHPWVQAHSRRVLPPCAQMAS
EGFR (human), P00533 [746-750 del], sequence (P00533 whole entry, looked up, stated change not applied): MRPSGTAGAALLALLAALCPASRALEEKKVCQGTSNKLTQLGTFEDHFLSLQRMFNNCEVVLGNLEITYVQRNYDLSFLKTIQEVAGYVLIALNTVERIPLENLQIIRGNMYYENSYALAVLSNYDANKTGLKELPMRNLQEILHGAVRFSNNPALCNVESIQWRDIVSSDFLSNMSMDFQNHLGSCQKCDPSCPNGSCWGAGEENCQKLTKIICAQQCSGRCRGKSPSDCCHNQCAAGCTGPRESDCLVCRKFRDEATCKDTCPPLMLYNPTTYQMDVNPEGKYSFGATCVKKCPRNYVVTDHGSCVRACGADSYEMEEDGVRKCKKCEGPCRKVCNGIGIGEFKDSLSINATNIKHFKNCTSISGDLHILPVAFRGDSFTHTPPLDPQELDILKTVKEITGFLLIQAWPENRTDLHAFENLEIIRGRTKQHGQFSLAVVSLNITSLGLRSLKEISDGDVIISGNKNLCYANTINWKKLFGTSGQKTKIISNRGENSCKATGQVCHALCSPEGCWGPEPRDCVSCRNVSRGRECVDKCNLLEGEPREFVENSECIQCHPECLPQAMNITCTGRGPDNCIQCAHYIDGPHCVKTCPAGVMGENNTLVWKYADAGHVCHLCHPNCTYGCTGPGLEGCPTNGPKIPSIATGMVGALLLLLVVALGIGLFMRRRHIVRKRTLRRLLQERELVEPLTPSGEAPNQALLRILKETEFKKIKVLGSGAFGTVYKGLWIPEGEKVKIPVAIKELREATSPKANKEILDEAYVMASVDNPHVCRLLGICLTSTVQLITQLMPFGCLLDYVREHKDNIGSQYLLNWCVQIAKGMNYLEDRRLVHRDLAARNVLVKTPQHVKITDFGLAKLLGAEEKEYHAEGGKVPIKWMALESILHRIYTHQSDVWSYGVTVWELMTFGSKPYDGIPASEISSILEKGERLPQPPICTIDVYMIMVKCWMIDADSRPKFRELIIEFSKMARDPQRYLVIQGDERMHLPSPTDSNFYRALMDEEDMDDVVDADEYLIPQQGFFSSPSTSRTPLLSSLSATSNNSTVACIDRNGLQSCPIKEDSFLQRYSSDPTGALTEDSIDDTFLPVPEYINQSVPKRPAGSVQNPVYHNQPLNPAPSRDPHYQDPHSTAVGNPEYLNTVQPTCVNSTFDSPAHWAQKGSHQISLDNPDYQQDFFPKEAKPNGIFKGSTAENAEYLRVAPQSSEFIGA
ADCK4 (human), sequence (Q96D53 whole entry, looked up): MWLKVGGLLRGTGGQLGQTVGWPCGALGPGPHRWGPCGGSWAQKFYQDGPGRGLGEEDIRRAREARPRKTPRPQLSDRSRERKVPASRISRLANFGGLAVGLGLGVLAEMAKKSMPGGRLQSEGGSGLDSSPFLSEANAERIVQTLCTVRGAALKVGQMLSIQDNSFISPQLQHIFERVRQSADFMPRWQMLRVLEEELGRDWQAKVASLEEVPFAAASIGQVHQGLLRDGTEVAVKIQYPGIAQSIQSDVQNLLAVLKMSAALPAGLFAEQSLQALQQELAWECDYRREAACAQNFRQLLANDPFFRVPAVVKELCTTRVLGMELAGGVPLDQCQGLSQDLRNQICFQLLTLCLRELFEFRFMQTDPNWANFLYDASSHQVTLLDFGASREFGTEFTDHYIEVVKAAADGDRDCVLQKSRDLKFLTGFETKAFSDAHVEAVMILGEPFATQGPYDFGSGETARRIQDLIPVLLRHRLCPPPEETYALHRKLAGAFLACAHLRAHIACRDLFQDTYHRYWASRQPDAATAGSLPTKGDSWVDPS
RPS6KA1 KD2 (human), sequence (Q15418 whole entry, looked up): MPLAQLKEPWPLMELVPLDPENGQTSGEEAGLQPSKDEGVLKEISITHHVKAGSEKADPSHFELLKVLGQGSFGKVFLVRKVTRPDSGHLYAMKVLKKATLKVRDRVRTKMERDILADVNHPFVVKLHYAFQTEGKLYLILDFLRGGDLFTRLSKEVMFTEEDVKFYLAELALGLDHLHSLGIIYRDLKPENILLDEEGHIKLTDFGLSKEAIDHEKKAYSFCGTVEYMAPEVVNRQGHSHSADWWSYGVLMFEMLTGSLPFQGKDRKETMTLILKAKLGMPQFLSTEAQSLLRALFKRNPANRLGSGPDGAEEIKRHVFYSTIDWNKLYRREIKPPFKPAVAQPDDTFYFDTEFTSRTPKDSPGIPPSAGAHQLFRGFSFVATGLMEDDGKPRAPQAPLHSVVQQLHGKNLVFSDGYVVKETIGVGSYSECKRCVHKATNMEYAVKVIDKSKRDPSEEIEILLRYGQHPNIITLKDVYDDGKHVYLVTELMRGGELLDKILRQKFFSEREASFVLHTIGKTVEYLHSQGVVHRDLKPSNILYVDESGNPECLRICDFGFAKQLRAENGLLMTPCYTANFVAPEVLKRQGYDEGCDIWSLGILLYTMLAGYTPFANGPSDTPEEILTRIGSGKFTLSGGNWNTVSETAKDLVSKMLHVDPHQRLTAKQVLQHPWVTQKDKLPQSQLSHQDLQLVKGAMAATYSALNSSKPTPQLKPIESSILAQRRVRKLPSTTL

`CNc1nc(Nc2ccc(C(=O)N3CCOCC3)cc2OC)ncc1Cl` showed a kinase still bound, per cent of control (RIOK1 (human)) of 95%, a kinase still bound, per cent of control (TLK2 (human)) of 100% and a kinase still bound, per cent of control (TTK (human)) of 20%. For the same compound, the kinase still bound, per cent of control (CSNK1G2 (human)) was 100%, the kinase still bound, per cent of control (NUAK2 (human)) was 100% and the residual activity (CDC2L2 (human)) was 100%. It also gave a kinase still bound, per cent of control (PLK3 (human)) of 100%, a kinase still bound, per cent of control (RET (human)) of 96% and a kinase still bound, per cent of control (MYO3A (human)) of 63%. The kinase still bound, per cent of control (CAMK4 (human)) was 100%, the kinase still bound, per cent of control [1] was 53% and the kinase still bound, per cent of control (ERBB4 (human)) was 100%. It also gave a kinase still bound, per cent of control (SRPK1 (human)) of 81%, a residual activity (CSNK1D (human)) of 100% and a kinase still bound, per cent of control (CSNK1A1 (human)) of 100%. It also gave a kinase still bound, per cent of control (TGFBR1 (human)) of 100%, a kinase still bound, per cent of control (MINK1 (human)) of 100% and a kinase still bound, per cent of control (MAP4K5 (human)) of 73%. The kinase still bound, per cent of control (PAK6 (human)) was 100%, the kinase still bound, per cent of control (EPHA3 (human)) was 100% and the residual activity (CDK15 (human)) was 84%. The kinase still bound, per cent of control (AURKC (human)) was 88%, the kinase still bound, per cent of control (RPS6KA1 KD2 (human)) was 88% and the kinase still bound, per cent of control (NEK3 (human)) was 100%. The kinase still bound, per cent of control [2] was 100%, the kinase still bound, per cent of control (STK10 (human)) was 100% and the kinase still bound, per cent of control (HCK (human)) was 100%. It also gave a kinase still bound, per cent of control [3] of 88%, a residual activity (CDKL5 (human)) of 94% and a kinase still bound, per cent of control (ADCK4 (human)) of 100%. For the same compound, the kinase still bound, per cent of control [4] was 100%, the kinase still bound, per cent of control (PIK3CB (human)) was 100% and the residual activity (CDK18 (human)) was 98%. It also gave a kinase still bound, per cent of control (MAPK12 (human)) of 100%, a kinase still bound, per cent of control [5] of 18% and a kinase still bound, per cent of control (ACVR1B (human)) of 100%. It also gave a kinase still bound, per cent of control (DCLK2 (human)) of 100%, a kinase still bound, per cent of control [6] of 99% and a kinase still bound, per cent of control (BMPR2 (human)) of 85%.
